Experiments:
[1] = test system: Staphylococcus aureus ATCC 12600; test: MIC, spiral gradient endpoint assay, S. aureus ATCC 12600; format: cell-based; settings: ATCC12600; Staphylococcus aureus ATCC 12600
[2] = test system: Escherichia coli D21f2tolC; test: MIC, spiral gradient endpoint assay, E. coli D21f2tolC; format: cell-based; settings: Escherichia coli, D21F2TOLC, read-out: MIC E. coli D21f2toIC
Burkholderia mallei CHN7 = test: microbe, parasite or virus in culture; format: cell-based; settings: Burkholderia mallei, CHN7, read-out: MIC B. mallei CHN7
[3] = test system: Burkholderia pseudomallei Human/Blood/OH/US/1994; test: microbe, parasite or virus in culture; format: cell-based; settings: Burkholderia pseudomallei, read-out: MIC B. pseudomallei Human/Blood/OH
Yersinia pestis C092 = test: microbe, parasite or virus in culture; format: cell-based; settings: Yersinia pestis, C092, read-out: MIC Y. pestis C092
[4] = test system: Bacillus anthracis Vollum 1b; test: microbe, parasite or virus in culture; format: cell-based; settings: Bacillus anthracis, VOLLUM1B, read-out: MIC B. anthracis Vollum-1b
[5] = test system: Acinetobacter baumannii ATCC 19606; test: MIC, spiral gradient endpoint assay, A. baumannii; format: cell-based; settings: ATCC19606; Acinetobacter baumannii ATCC 19606
Brucella melitensis 16M = test: microbe, parasite or virus in culture; format: cell-based; settings: Brucella melitensis, 16M, read-out: MIC B. melitensis 16M
[6] = test system: Mycobacterium tuberculosis H37Rv; test: MIC, microplate Alamar Blue assay, M. tuberculosis; format: cell-based
[7] = biological target: E. coli RNA polymerase σ^70 holoenzyme (Escherichia coli, UniProt P0A8T7+P0A8V2); test: Fluorescence-detected RNA polymerase assay, E. coli RNA polymerase; format: biochemical; settings: read-out: IC50 E. coli RNAP
E. coli RNA polymerase σ^70 holoenzyme, sequence (P0A8T7 whole entry): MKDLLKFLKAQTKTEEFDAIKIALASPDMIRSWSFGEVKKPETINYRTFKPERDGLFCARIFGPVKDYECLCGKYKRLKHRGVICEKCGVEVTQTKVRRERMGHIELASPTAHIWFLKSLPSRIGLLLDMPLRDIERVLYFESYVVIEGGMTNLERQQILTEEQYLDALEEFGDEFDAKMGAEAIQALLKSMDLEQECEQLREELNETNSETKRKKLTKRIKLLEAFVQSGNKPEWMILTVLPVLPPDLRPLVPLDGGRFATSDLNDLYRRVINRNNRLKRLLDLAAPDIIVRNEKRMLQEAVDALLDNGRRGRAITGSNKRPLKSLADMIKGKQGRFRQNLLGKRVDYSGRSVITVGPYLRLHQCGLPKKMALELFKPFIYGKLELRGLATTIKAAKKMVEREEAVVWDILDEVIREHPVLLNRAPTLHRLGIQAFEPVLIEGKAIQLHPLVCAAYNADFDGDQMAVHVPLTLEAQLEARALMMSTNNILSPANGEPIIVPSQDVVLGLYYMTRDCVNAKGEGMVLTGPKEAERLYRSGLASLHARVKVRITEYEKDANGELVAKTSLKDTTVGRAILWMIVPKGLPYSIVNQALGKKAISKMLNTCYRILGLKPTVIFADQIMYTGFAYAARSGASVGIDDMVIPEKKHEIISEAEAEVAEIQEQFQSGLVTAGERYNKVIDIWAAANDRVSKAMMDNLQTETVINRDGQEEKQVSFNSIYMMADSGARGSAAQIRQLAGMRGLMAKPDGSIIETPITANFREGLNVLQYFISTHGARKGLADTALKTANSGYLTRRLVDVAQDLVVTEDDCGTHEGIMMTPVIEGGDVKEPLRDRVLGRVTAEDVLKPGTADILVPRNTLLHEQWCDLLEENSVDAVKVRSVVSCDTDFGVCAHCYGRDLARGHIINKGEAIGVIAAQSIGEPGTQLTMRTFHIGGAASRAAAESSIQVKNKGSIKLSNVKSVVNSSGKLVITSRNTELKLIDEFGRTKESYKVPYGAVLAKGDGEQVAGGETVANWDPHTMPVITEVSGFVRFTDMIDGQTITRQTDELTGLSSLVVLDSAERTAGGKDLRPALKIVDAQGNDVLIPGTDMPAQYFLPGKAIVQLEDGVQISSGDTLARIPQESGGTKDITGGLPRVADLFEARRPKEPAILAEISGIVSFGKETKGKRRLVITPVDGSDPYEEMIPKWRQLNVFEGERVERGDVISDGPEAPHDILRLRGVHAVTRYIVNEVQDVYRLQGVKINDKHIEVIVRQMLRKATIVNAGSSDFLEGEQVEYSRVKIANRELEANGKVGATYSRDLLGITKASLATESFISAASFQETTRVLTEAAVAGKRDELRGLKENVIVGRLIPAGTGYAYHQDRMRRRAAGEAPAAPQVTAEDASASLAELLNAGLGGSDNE
E. coli RNA polymerase σ^70 holoenzyme, sequence (P0A800 whole entry, further chain): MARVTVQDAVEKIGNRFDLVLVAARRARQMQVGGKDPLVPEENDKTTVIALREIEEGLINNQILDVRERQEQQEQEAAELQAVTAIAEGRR
E. coli RNA polymerase σ^70 holoenzyme, sequence (P0A8V2 whole entry): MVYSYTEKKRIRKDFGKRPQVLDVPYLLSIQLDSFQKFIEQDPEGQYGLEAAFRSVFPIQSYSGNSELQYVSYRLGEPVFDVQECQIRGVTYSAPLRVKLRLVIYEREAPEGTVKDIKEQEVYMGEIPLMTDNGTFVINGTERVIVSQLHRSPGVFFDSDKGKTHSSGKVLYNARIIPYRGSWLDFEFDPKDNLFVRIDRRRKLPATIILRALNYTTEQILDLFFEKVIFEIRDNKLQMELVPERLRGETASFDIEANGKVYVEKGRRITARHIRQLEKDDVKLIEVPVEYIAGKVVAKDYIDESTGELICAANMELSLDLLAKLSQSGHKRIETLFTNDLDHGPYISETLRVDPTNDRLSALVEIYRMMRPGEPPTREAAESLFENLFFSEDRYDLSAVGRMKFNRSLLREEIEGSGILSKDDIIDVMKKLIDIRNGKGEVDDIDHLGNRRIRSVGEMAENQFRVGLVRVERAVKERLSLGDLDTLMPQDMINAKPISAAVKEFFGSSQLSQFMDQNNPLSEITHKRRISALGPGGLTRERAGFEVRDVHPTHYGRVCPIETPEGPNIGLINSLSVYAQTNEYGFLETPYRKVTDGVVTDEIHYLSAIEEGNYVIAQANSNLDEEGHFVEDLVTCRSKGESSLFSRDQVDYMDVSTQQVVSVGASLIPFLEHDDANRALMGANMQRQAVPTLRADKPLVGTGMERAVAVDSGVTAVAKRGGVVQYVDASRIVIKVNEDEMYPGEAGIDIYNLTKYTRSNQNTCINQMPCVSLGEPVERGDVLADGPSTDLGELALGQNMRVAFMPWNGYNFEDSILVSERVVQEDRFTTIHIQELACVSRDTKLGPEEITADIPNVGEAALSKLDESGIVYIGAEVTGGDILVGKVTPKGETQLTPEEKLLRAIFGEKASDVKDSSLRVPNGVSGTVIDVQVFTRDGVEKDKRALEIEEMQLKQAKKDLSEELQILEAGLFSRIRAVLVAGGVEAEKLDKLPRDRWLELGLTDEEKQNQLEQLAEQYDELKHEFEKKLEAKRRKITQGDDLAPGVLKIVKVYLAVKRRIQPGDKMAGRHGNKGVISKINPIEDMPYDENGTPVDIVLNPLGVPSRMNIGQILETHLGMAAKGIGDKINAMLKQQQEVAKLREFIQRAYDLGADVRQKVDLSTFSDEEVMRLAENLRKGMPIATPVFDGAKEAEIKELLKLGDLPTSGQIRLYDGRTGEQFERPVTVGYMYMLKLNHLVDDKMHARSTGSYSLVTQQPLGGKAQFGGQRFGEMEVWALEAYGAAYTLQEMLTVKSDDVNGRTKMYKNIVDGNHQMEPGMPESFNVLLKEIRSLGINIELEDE
E. coli RNA polymerase σ^70 holoenzyme, sequence (P00579 whole entry, further chain): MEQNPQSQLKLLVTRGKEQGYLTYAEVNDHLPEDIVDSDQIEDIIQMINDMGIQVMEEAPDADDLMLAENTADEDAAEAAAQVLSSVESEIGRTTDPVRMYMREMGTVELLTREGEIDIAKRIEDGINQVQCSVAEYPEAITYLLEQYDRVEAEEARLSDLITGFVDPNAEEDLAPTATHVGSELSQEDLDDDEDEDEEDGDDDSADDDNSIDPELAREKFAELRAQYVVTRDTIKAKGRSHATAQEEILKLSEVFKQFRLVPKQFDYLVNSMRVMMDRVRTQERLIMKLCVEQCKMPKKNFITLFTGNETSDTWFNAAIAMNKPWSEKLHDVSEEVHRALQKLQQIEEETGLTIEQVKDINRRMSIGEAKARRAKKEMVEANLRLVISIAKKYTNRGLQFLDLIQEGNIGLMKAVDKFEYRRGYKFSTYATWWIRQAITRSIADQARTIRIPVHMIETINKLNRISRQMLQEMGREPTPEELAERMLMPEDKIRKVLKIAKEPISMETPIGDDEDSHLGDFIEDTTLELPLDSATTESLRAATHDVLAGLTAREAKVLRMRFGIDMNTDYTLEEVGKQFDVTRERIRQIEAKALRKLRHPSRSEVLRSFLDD
E. coli RNA polymerase σ^70 holoenzyme, sequence (P0A7Z4 whole entry, further chain): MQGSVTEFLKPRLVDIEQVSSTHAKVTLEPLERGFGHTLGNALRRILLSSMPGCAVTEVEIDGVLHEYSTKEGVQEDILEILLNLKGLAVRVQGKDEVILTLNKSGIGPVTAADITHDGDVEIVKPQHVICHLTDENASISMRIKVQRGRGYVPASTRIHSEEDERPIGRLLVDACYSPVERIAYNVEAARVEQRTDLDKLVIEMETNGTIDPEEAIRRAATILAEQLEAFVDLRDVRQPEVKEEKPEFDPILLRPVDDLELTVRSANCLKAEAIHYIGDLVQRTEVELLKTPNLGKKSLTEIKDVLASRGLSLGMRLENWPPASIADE

[8] = test system: Francisella tularensis SCHU4; test: microbe, parasite or virus in culture; format: cell-based; settings: Francisella tularensis, SCHU4, read-out: MIC F. tularensis SCHU4

Compound | MIC [1] [µg/mL] | MIC [2] [µg/mL] | MIC (Burkholderia mallei CHN7) [µg/mL] | MIC [3] [µg/mL] | MIC (Yersinia pestis C092) [µg/mL] | MIC [4] [µg/mL] | MIC [5] [µg/mL] | MIC (Brucella melitensis 16M) [µg/mL] | MIC [6] [µg/mL] | IC50 [7] [nM] | MIC [8] [µg/mL]
CCCCCCc1ccc(C=C(C)C(=O)c2c(O)cc(C(C)CC/C=C/NC(=O)OC)oc2=O)cn1 (mixture of isomers) [APY37, methyl (E)-5-(3-((E/Z)-3-(6-hexylpyridin-3-yl)-2-methylacryloyl)-4-hydroxy-2-oxo-2H-pyran-6-yl)hex-1-enylcarbamate] | > 40 | 0.6 | 50 | > 50 | > 50 | 50 | > 40 | 10 | > 50 | 90 | 50
COC(=O)N/C=C/CCC(C)c1cc(O)c(C(=O)C(C)=Cc2ccc(OCCC(C)(C)C)cc2)c(=O)o1 (mixture of isomers) [APY48, methyl (E)-5-(3-((E/Z)-3-(4-(3,3-dimethylbutoxy)phenyl)-2-methylacryloyl)-4-hydroxy-2-oxo-2H-pyran-6-yl)hex-1-enylcarbamate] | 10 | – | 50 | > 50 | > 50 | 6 | – | 6 | 10 | 900 | 10
CCCCOc1ccc(C=C(C)C(=O)c2c(O)cc(C(C)CC/C=C/NC(=O)OC)oc2=O)cc1 (mixture of isomers) [APY39, methyl (E)-5-(3-((E/Z)-3-(4-butoxyphenyl)-2-methylacryloyl)-4-hydroxy-2-oxo-2H-pyran-6-yl)hex-1-enylcarbamate] | 1 | 0.2 | 10 | 50 | 30 | 3 | > 40 | 0.4 | 3 | 80 | 30
COC(=O)N/C=C/CCC(C)c1cc(O)c(C(=O)C(C)=Cc2ccc(OCC(F)F)cc2C)c(=O)o1 (mixture of isomers) [APY131, methyl ((1E)-5-(3-(3-(4-(2,2-difluoroethoxy)-2-methylphenyl)-2-methylacryloyl)-4-hydroxy-2-oxo-2H-pyran-6-yl)hex-1-en-1-yl)carbamate] | 8 | 0.7 | > 50 | > 50 | > 50 | 30 | > 40 | > 50 | 30 | 200 | > 50
COC(=O)N/C=C/CCC(C)c1cc(O)c(C(=O)C(C)=Cc2cccc(OCCC(C)(C)C)c2)c(=O)o1 (mixture of isomers) [APY49, methyl (E)-5-(3-((E/Z)-3-(3-(3,3-dimethylbutoxy)phenyl)-2-methylacryloyl)-4-hydroxy-2-oxo-2H-pyran-6-yl)hex-1-enylcarbamate] | > 40 | 0.3 | 50 | > 50 | > 50 | 10 | > 40 | 10 | 50 | 10 | 30
COC(=O)N/C=C/CCC(C)c1cc(O)c(C(=O)C(C)=Cc2ccc(OCCC(F)(F)F)cc2)c(=O)o1 (mixture of isomers) [APY126, methyl ((1E)-5-(4-hydroxy-3-(2-methyl-3-(4-(3,3,3-trifluoropropoxy)phenyl)acryloyl)-2-oxo-2H-pyran-6-yl)hex-1-en-1-yl)carbamate] | 1 | 0.3 | 50 | > 50 | 30 | 3 | > 40 | 10 | 6 | 80 | > 50
CCCCOc1ccc(C=C(C)C(=O)c2c(O)cc(C(C)CC/C=C/NC(=O)OC)oc2=O)c(C)c1 (mixture of isomers) [APY129, methyl ((1E)-5-(3-(3-(4-butoxy-2-methylphenyl)-2-methylacryloyl)-4-hydroxy-2-oxo-2H-pyran-6-yl)hex-1-en-1-yl)carbamate] | 2 | 0.3 | 50 | > 50 | 30 | 3 | 40 | 10 | 30 | 50 | > 50
CCCOc1cccc(C=C(C)C(=O)c2c(O)cc(C(C)CC/C=C/NC(=O)OC)oc2=O)c1 (mixture of isomers) [APY43, methyl (E)-5-(4-hydroxy-3-((E/Z)-2-methyl-3-(3-propoxyphenyl)acryloyl)-2-oxo-2H-pyran-6-yl)hex-1-enylcarbamate] | > 40 | 0.4 | 50 | 50 | > 50 | 10 | > 40 | 3 | 6 | 200 | 30
COC(=O)N/C=C/CCC(C)c1cc(O)c(C(=O)C(C)=Cc2ccc(OC(C)C)cc2C)c(=O)o1 (mixture of isomers) [APY130, methyl ((1E)-5-(4-hydroxy-3-(3-(4-isopropoxy-2-methylphenyl)-2-methylacryloyl)-2-oxo-2H-pyran-6-yl)hex-1-en-1-yl)carbamate] | 3 | 2 | > 50 | > 50 | > 50 | 10 | > 40 | > 50 | 30 | 200 | > 50
COC(=O)N/C=C/CCC(C)c1cc(O)c(C(=O)C(C)=Cc2cc(Br)c(CC(C)C)s2)c(=O)o1 (mixture of isomers) [APY120, methyl ((1E)-5-(3-(3-(4-bromo-5-isobutylthiophen-2-yl)-2-methylacryloyl)-4-hydroxy-2-oxo-2H-pyran-6-yl)hex-1-en-1-yl)carbamate] | 1 | 0.2 | 6 | 10 | 6 | 2 | 30 | 3 | > 50 | 20 | 50
COC(=O)N/C=C/CCC(C)c1cc(O)c(C(=O)C(C)=Cc2ccc(CCC(F)(F)F)cc2)c(=O)o1 (mixture of isomers) [APY74, methyl (E)-5-(5-((E/Z)-3-(4-(3,3,3-trifluoropropyl)phenyl)-2-methylacryloyl)-4-hydroxy-6-oxo-6H-pyran-2-yl)hex-1-enylcarbamate] | 2 | 0.2 | > 50 | > 50 | – | 10 | > 40 | 10 | 10 | 40 | 50
CCc1ccc(C=C(C)C(=O)c2c(O)cc(C(C)CC/C=C/NC(=O)OC)oc2=O)s1 (mixture of isomers) [APY64, methyl (E)-5-(5-((E/Z)-3-(5-ethylthiophen-2-yl)-2-methylacryloyl)-4-hydroxy-6-oxo-6H-pyran-2-yl)hex-1-enylcarbamate] | 9 | 0.8 | > 50 | > 50 | – | 50 | > 40 | 10 | 30 | 200 | 50
COC(=O)N/C=C/CCC(C)c1cc(O)c(C(=O)C(C)=Cc2ccc(CCC(C)(C)C)s2)c(=O)o1 (mixture of isomers) [APY56, methyl (E)-5-(4-hydroxy-5-((E/Z)-2-methyl-3-(5-(3,3-dimethylbutyl)thiophen-2-yl)acryloyl)-6-oxo-6H-pyran-2-yl)hex-1-enylcarbamate] | 0.7 | 0.2 | 3 | 6 | – | 0.2 | 10 | 3 | 10 | 7 | 6
CCCc1ccc(C=C(C)C(=O)c2c(O)cc(C(C)CC/C=C/NC(=O)OC)oc2=O)s1 (mixture of isomers) [APY58, methyl (E)-5-(4-hydroxy-5-((E/Z)-2-methyl-3-(5-propylthiophen-2-yl)acryloyl)-6-oxo-6H-pyran-2-yl)hex-1-enylcarbamate] | 1 | 0.2 | 50 | 50 | – | 10 | > 40 | > 50 | 10 | 80 | 50
COC(=O)N/C=C/CCC(C)c1cc(O)c(C(=O)C(C)=Cc2ccc(OCC3CCCC3)cc2)c(=O)o1 (mixture of isomers) [APY52] | 4 | 0.4 | 50 | > 50 | – | 2 | > 40 | 3 | 30 | 2000 | 30
COC(=O)N/C=C/CCC(C)c1cc(O)c(C(=O)C(C)=Cc2ccc(OCC(C)(C)C)cc2)c(=O)o1 (mixture of isomers) [APY55, methyl (E)-5-(4-hydroxy-3-((E/Z)-2-methyl-3-(4-(neopentyloxy)phenyl)acryloyl)-2-oxo-2H-pyran-6-yl)hex-1-enylcarbamate] | 10 | 0.7 | 50 | > 50 | – | 2 | > 40 | 30 | 10 | 40 | 30

— patent publication US9592221B2, “Antibacterial agents: aryl myxopyronin derivatives” (priority 2012, dated 2017)
